The values that follow come from patent US9216985B2, “3-aryl-2-((arylamino)methyl)quinazolin-4-(3H)-ones” (SciFluor Life Sciences, Inc., priority 2013, dated 2015).

The target of assay [1] is PI3Kδ (Homo sapiens (Human), UniProt O00329). The assay is described as follows: Homogeneous Time Resolved Fluorescence (HTRF) lipid kinase assay. To be noted: HTRF format, 10 μM ATP. The format is biochemical. As to the method:
(§1) The ability of the compounds of the present invention to inhibit the activity of four PI3K isoforms, PI3Kα, PI3Kβ, PI3Kγ, and PI3Kδ, were determined using a commercially available lipid kinase assay run in Homogeneous Time Resolved Fluorescence (HTRF) format.
(§2) Assay principle: The PIP3 product is detected by displacement of biotin-PIP3 from an energy transfer complex consisting of Europium labeled anti-GST monoclonal antibody, a GST-tagged pleckstrin homology (PH) domain, biotinylated PIP3 and Streptavidin-Allophycocyanin (APC). Excitation of Europium in the complex results in an energy transfer to the APC and a fluorescent emission at 665 nm. The PIP3 product formed by PI 3-Kinase(h) activity displaces biotin-PIP3 from the complex resulting in a loss of energy transfer and thus a decrease in signal.
(§3) This is a 3-step reaction: First, the kinase reaction with PIP2 substrate is carried out in the presence of ATP, and the reaction is quenched with stop Solution, and then finally detect by adding Detection Mixture followed by incubation.
(§4) Assay Buffer: HEPES 50 mM (pH7.0), NaN3 0.02%, BSA 0.01%, Orthovanadate 0.1 mM, 1% DMSO.
(§5) Detection buffer: HEPES 10 mM (pH7.0), BSA 0.02%, KF 0.16 M, EDTA 4 mM.
(§6) Substrate: […] PIP2 substrate (PI(4,5)P2)
(§7) ATP: 10 μM ATP under standard conditions
(§8) Control Inhibitor: PI-103
(§9) • 1. Prepare substrate in freshly prepared Reaction Buffer • 2. Deliver kinase into the substrate solution and gently mix • 3. Deliver compounds in 100% DMSO into the kinase reaction mixture by Acoustic technology (Echo550; nanolitter range), incubate for 10 min at room temp • 4. Deliver ATP into the reaction mixture to initiate the reaction • 5. Incubate for 30 min at 30° C. • 6. Quench the reaction with Stop Solution. • 7. Add Detection Mixture, and incubate for overnight. • 8. Measure HTRF: Ex=320 nm, ratio of Em=615 nm and Em=665 nm. Data Analysis:
(§10) The emission ratio is converted into μM PIP3 production based on PIP3 standard curves. The nonlinear regression to obtain the standard curve and IC50 values are performed using Graphpad Prism software.

Assay [2] addresses PI3Kβ (Homo sapiens (Human), UniProt P42338). The assay is described as above. It is filed as biochemical. Conditions: HTRF format, 10 μM ATP. As to the method: as §1, §2, §3, §4, §5, §6, §7, §8, §9, §10
For assay [3], the target named is PI3Kγ (Homo sapiens (Human), UniProt P48736). The description is as above. It is filed as biochemical. To be noted: HTRF format, 10 μM ATP. As to the method: as §1, §2, §3, §4, §5, §6, §7, §8, §9, §10
PI3Kγ, sequence (P48736 whole entry): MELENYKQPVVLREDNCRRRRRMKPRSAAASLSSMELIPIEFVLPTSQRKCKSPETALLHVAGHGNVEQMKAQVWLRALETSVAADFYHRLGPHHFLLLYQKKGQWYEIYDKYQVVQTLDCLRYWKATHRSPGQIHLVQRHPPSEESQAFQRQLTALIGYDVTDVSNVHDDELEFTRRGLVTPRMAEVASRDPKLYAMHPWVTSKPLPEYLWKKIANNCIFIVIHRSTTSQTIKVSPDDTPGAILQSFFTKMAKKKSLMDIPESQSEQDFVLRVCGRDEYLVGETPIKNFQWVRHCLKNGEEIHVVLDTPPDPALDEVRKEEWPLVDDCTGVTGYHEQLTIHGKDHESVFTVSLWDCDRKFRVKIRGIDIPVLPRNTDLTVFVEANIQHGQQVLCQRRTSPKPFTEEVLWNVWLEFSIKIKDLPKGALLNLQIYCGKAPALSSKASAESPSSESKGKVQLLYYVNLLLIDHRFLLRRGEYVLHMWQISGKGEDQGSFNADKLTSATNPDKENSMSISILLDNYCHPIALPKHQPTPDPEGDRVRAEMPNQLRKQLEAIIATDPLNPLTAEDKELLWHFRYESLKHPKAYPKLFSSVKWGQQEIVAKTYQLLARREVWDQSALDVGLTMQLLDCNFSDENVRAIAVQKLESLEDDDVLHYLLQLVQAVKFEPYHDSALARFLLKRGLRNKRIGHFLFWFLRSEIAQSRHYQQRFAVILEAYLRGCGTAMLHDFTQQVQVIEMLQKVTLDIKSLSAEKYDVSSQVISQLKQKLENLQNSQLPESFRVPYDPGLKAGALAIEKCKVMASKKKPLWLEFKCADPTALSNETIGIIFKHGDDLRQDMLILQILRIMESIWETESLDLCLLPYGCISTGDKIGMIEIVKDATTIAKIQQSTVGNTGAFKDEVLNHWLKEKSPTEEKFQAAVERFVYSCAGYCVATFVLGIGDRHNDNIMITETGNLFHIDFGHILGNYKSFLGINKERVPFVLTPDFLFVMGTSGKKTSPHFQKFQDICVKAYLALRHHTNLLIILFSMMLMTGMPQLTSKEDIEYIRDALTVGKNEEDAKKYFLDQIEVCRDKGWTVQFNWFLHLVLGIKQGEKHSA
The target of assay [4] is PI3Kα (Homo sapiens (Human), UniProt P42336). The assay is described as above. The format is biochemical. To be noted: HTRF format, 10 μM ATP. As to the method: as §1, §2, §3, §4, §5, §6, §7, §8, §9, §10
PI3Kα, sequence (P42336 whole entry): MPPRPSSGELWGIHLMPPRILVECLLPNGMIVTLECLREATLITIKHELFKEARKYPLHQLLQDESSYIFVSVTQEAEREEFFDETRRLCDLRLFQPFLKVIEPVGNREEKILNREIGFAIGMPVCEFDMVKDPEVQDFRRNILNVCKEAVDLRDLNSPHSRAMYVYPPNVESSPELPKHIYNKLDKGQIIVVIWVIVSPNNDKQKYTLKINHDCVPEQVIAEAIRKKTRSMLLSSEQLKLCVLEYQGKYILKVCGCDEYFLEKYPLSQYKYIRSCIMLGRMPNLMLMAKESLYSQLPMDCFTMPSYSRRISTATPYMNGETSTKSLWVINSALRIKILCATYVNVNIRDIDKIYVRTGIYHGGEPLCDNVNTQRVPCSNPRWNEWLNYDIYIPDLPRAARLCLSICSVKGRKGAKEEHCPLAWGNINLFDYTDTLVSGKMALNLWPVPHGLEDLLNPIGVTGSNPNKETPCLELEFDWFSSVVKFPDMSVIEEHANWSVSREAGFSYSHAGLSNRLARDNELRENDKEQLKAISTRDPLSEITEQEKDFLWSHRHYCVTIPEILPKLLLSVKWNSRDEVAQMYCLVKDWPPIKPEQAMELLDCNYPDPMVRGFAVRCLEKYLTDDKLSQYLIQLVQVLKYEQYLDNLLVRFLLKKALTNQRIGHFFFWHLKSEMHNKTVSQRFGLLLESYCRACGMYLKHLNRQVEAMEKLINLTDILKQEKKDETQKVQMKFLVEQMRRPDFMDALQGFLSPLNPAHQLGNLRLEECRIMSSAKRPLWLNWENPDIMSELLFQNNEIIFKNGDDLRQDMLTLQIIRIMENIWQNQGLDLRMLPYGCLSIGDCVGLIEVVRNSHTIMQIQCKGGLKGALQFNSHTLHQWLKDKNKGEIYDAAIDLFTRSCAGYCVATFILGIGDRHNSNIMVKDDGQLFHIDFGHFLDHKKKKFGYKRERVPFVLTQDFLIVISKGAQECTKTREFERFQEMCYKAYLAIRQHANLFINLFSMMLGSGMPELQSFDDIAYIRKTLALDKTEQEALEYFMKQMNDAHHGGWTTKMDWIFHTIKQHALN
PI3Kα, sequence (P27986 whole entry partner): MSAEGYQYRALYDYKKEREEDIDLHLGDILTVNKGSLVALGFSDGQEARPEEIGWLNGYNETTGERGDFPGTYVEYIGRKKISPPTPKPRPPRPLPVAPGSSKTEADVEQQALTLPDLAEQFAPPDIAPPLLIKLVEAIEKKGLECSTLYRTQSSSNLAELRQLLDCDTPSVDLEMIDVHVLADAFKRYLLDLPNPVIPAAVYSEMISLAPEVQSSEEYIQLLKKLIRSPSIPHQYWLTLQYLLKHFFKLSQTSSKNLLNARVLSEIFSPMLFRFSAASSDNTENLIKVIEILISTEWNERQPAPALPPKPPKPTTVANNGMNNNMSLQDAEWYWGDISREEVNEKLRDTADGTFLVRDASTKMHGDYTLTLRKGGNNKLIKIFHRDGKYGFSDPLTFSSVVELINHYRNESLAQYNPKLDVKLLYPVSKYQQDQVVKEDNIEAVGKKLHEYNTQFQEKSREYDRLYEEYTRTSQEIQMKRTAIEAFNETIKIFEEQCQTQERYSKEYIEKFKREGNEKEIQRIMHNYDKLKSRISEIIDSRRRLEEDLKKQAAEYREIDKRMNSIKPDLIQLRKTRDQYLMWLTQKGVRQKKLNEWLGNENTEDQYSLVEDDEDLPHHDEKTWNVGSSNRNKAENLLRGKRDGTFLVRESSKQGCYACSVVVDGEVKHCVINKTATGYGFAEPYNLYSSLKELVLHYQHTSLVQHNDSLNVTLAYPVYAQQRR
The target in assay [5] is PI3Kδ human fl (Homo sapiens (Human), UniProt O00329). The assay is described as follows: Reporter displacement assay. It is filed as binding. As to the method:
(§11) The ability of the compounds of the present invention to inhibit the activity of four PI3K isoforms, PI3Kα, PI3Kβ, PI3Kγ, and PI3Kδ, were determined using the commercially available reporter displacement assay that is based on reporter probes that are designed to bind to the site of interest of the target protein. The proximity between reporter and protein results in the emission of an optical signal. Compounds that bind to the same site as the reporter probe displace the probe, causing signal diminution. Reporter displacement is measured over time after addition of compounds at various concentrations. The assay conditions were:
(§12) Assay plates: 384 well U bottom, PP, black, low volume (Corning, 3676)
(§13) Full probe displacement: absence of enzyme and compound
(§14) Full probe binding: absence of compound
(§15) Reaction buffer: 20 mM Mops, pH 7.01 mM DTT, 0.01% Tween 20

Assay [6] deals with PI3Kγ human (144-1102) (Homo sapiens (Human), UniProt P48736). The assay is described as follows: Reporter displacement assay. It is filed as binding. As to the method:
as §11, §12, §13, §14, §15

For assay [7], the target named is PI3Kα human fl (Homo sapiens (Human), UniProt P42336). The experiment in a line: Reporter displacement assay. The format is binding. As to the method:
as §11, §12, §13, §14, §15

For assay [8], the target named is PI3Kβ human (1-1070) (Homo sapiens (Human), UniProt P42338). The assay is described as follows: Reporter displacement assay. It is filed as binding. As to the method: as §11, §12, §13, §14, §15

PI3Kβ, sequence (P42338 whole entry): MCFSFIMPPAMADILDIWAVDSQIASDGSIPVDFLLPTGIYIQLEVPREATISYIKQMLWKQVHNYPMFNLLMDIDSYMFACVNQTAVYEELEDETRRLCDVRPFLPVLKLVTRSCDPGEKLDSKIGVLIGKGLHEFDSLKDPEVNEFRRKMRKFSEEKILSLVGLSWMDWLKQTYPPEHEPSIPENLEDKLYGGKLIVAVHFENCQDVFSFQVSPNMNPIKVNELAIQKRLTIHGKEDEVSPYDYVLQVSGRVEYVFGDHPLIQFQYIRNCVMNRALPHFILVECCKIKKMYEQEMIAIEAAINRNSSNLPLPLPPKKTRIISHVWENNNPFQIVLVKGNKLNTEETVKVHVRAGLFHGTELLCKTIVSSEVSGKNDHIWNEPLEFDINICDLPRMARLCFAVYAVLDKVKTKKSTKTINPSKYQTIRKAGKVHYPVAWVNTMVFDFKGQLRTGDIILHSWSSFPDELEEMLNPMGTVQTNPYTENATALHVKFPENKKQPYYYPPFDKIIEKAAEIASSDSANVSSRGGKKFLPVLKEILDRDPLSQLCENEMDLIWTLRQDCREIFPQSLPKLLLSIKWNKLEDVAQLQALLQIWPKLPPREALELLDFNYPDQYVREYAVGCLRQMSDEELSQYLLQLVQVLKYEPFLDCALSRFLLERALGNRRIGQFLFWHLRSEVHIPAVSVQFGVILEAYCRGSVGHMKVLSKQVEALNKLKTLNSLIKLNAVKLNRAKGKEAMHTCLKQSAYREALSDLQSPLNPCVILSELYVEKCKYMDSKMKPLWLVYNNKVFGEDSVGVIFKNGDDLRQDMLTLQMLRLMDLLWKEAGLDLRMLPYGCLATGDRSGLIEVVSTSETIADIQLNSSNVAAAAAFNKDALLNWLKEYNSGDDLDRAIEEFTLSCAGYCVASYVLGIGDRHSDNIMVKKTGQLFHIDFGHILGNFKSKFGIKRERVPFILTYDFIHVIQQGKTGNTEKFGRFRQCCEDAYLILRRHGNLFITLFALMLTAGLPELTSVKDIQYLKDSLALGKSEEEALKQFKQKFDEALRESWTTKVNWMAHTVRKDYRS
PI3Kβ, sequence (P27986 whole entry partner): as the sequence (P27986 whole entry partner) above
PI3Kδ, sequence (O00329 whole entry, canonical isoform): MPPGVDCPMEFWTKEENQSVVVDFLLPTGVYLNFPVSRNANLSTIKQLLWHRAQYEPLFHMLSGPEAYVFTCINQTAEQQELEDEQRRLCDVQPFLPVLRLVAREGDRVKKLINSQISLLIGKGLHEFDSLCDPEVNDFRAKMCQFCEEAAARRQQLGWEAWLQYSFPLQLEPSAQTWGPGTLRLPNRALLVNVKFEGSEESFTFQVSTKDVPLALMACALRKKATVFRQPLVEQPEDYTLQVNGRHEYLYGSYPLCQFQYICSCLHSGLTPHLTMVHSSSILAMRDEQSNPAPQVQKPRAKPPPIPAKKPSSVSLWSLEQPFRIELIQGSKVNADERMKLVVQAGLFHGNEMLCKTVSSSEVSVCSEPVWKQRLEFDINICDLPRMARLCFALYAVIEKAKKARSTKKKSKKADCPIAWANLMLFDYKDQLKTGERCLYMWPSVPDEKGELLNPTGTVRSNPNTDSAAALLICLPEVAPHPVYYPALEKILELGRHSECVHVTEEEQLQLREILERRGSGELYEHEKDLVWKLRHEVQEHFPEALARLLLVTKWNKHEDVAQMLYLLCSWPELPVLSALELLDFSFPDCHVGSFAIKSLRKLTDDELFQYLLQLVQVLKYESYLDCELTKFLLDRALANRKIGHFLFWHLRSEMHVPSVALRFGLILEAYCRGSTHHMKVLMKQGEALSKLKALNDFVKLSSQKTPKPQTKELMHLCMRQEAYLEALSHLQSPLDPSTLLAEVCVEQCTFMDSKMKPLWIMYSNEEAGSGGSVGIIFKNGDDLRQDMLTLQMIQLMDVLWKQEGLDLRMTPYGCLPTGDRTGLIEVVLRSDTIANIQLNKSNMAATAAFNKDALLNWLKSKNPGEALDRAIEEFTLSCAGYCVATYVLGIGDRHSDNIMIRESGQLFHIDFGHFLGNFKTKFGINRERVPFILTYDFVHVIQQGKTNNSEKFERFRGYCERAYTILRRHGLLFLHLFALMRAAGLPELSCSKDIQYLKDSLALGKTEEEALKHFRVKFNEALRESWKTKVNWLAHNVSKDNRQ
PI3Kδ, sequence (P27986 whole entry partner, canonical isoform): as the sequence (P27986 whole entry partner) above

In the case of `O=c1c2c(F)cccc2nc(CNc2ncnc3[nH]ccc23)n1-c1cccc(OCC(F)(F)F)c1` [Compound 21A, 2-(((7H-pyrrolo[2,3-d]pyrimidin-4-yl)amino)methyl)-5-fluoro-3-(3-(2,2,2-trifluoroethoxy)phenyl)quinazolin-4(3H)-one], the IC50 in assay [1] was 2100 nM; in assay [2], more than 10000 nM.
Regarding `O=c1c2c(F)cccc2nc([C@H](CC(F)(F)F)Nc2ncnc3[nH]cnc23)n1-c1ccccc1` [Compound 2A, (S)-2-(1-((9H-purin-6-yl)amino)-3,3,3-trifluoropropyl)-5-fluoro-3-phenylquinazolin-4(3H)-one], the IC50 in assay [3] came to 1800 nM; in assay [1], 80 nM; in assay [2], 3900 nM.
As for `C[C@H](Nc1ncnc2[nH]cc(F)c12)c1nc2cccc(F)c2c(=O)n1-c1cccc(OCC(F)(F)F)c1` [Compound 17A, (S)-5-fluoro-2-(1-((5-fluoro-7H-pyrrolo[2,3-d]pyrimidin-4-yl)amino)ethyl)-3-(3-(2,2,2-trifluoroethoxy)phenyl)quinazolin-4(3H)-one], the half-maximal inhibitory concentration (IC50) in assay [3] is 1200 nM; in assay [1] it was 8 nM; in assay [2], 3400 nM; in assay [4], 10000 nM.
Take `C[C@H](Nc1ncnc2[nH]ccc12)c1nc2cccc(F)c2c(=O)n1-c1ccc(OCC(F)(F)F)cc1` [Compound 15A, (S)-2-(1-((7H-pyrrolo[2,3-d]pyrimidin-4-yl)amino)ethyl)-5-fluoro-3-(4-(2,2,2-trifluoroethoxy)phenyl)quinazolin-4(3H)-one]: the IC50 was 740 nM in assay [3], 9 nM in assay [1], 7300 nM in assay [2] and 9700 nM in assay [4].
The corresponding values for `C[C@H](Nc1ncnc2[nH]ccc12)c1nc2cccc(F)c2c(=O)n1-c1cccc(OCC(F)(F)C(F)(F)F)c1` [Compound 19A, (S)-2-(1-((7H-pyrrolo[2,3-d]pyrimidin-4-yl)amino)ethyl)-5-fluoro-3-(3-(2,2,3,3,3-pentafluoropropoxy)phenyl)quinazolin-4(3H)-one] are 4500 nM, 190 nM, more than 10000 nM and more than 10000 nM.
As for `CC[C@H](Nc1ncnc2[nH]ccc12)c1nc2cccc(F)c2c(=O)n1-c1ccc(OCC(F)(F)F)cc1` [Compound 16A, (S)-2-(1-((7H-pyrrolo[2,3-d]pyrimidin-4-yl)amino)propyl)-5-fluoro-3-(4-(2,2,2-trifluoroethoxy)phenyl)quinazolin-4(3H)-one], the results for the half-maximal inhibitory concentration (IC50) in assay [3], in assay [1] and in assay [2] were 5400 nM, 90 nM and 10500 nM, respectively.
For `CC[C@H](Nc1ncnc2[nH]ccc12)c1nc2cccc(F)c2c(=O)n1-c1ccccc1` [Compound 1A, (S)-2-(1-((7H-pyrrolo[2,3-d]pyrimidin-4-yl)amino)propyl)-5-fluoro-3-phenylquinazolin-4(3H)-one], the half-maximal inhibitory concentration (IC50) turned out to be 1200 nM in assay [3], 8 nM in assay [1], 650 nM in assay [2] and 3700 nM in assay [4].
As for `CC[C@H](Nc1ncnc2[nH]cnc12)c1nc2cccc(F)c2c(=O)n1-c1cccc(OCC(F)(F)F)c1` [Compound 10A, (S)-2-(1-((9H-purin-6-yl)amino)propyl)-5-fluoro-3-(3-(2,2,2-trifluoroethoxy)phenyl)quinazolin-4(3H)-one], the IC50 in assay [3] amounted to 740 nM; in assay [1], 20 nM.
Turning to `C[C@H](Nc1ncnc2[nH]ccc12)c1nc2cccc(Cl)c2c(=O)n1-c1cccc(OCC(F)(F)F)c1` [Compound 20A, (S)-2-(1-((7H-pyrrolo[2,3-d]pyrimidin-4-yl)amino)ethyl)-5-chloro-3-(3-(2,2,2-trifluoroethoxy)phenyl)quinazolin-4(3H)-one], the IC50 in assay [3] turned out to be 460 nM; in assay [1], 10 nM; in assay [2], 1100 nM; in assay [4] it was 4100 nM.
As for `CC[C@H](Nc1ncnc2[nH]ccc12)c1nc2cccc(F)c2c(=O)n1-c1cccc(OCC(F)(F)F)c1` [Compound 11A, (S)-2-(1-((7H-pyrrolo[2,3-d]pyrimidin-4-yl)amino)propyl)-5-fluoro-3-(3-(2,2,2-trifluoroethoxy)phenyl)quinazolin-4(3H)-one], the IC50 in assay [3] was determined as 3000 nM; in assay [1], 110 nM; in assay [4], 115000 nM.
With `CC[C@H](Nc1ncnc2[nH]ccc12)c1nc2cccc(F)c2c(=O)n1-c1cccc(CC(F)(F)F)c1` [Compound 7A, (S)-2-(1-((7H-pyrrolo[2,3-d]pyrimidin-4-yl)amino)propyl)-5-fluoro-3-(3-(2,2,2-trifluoroethyl)phenyl)quinazolin-4(3H)-one], the half-inhibitory concentration (IC50) was determined as 1300 nM in assay [3], 50 nM in assay [1], 5800 nM in assay [2] and 28000 nM in assay [4].
With `CC[C@H](Nc1ncnc2[nH]cnc12)c1nc2cccc(F)c2c(=O)n1-c1cccc(CC(F)(F)F)c1` [Compound 6A, (S)-2-(1-((9H-purin-6-yl)amino)propyl)-5-fluoro-3-(3-(2,2,2-trifluoroethyl)phenyl)quinazolin-4(3H)-one], the IC50 in assay [3] is 300 nM; in assay [1], 20 nM; in assay [2], 3100 nM; in assay [4], 15000 nM.
On to `C[C@H](Nc1ncnc2[nH]ccc12)c1nc2cccc(F)c2c(=O)n1-c1cccc(OCC(F)F)c1` [Compound 22A, (S)-2-(1-((7H-pyrrolo[2,3-d]pyrimidin-4-yl)amino)ethyl)-3-(3-(2,2-difluoroethoxy)phenyl)-5-fluoroquinazolin-4(3H)-one], for which the IC50 came out at 20 nM in assay [5], 1200 nM in assay [6], 9800 nM in assay [7] and 2100 nM in assay [8].
